Source: ChEMBL document CHEMBL1130824, “The novel cyclopropapyrroloindole(CPI) bisalkylators bearing methoxycarbonyl and trifluoromethyl groups” (Bioorg Med Chem Lett, 1998)
≈ marks a conversion by molar mass, not a printed value. Blank lines part the entries; values can stand above or below the molecule they belong to.

Tests used:
Colon 26 [1] = experiment: Compound was tested for antitumor activity against colon 26 murine adenocarcinoma infected CDF1 mice when administered at a dose of 0.977 ug/Kg intravenously; type: functional; conditions: Mus musculus, Colon 26, iv; read-out: TGI
HeLa = experiment: Concentration required to inhibit the growth of HeLaS3 cells; type: functional, cell-based, Homo sapiens
Colon 26 [2] = experiment: Compound was tested for antitumor activity against colon 26 murine adenocarcinoma infected CDF1 mice when administered at a dose of 15.6 ug/Kg intravenously; type: functional; conditions: Mus musculus, Colon 26, iv; read-out: TGI
Colon 26 [3] = experiment: Compound was tested for antitumor activity against colon 26 murine adenocarcinoma infected CDF1 mice when administered at a dose of 31.3 ug/Kg intravenously; type: functional; conditions: Mus musculus, Colon 26, iv; read-out: TGI
Colon 26 [4] = experiment: Compound was tested for antitumor activity against colon 26 murine adenocarcinoma infected CDF1 mice when administered at a dose of 4000 ug/Kg intravenously; type: functional; conditions: Mus musculus, Colon 26, iv; read-out: TGI
[5] = Homo sapiens, HeLa, read-out: IC50

- IC50 (HeLa; hela): 0.0049 ng/mL (≈ 0.00499 nM)
Compound: COC(=O)c1c(C(F)(F)F)[nH]c2c(O)cc3c(c12)[C@H](CCl)CN3C(=O)c1cc2cc(-c3ccc4[nH]c(C(=O)N5C[C@@H](CCl)c6c5cc(O)c5[nH]c(C(F)(F)F)c(C(=O)OC)c65)cc4c3)ccc2[nH]1
- inhibition in vivo at 0.000977 mg/kg (Colon 26 [1]): 84%

- IC50 (HeLa; [5]): 0.35 ng/mL (≈ 0.348 nM)
Compound: COC(=O)c1c(C(F)(F)F)[nH]c2c(O)cc3c(c12)[C@H](CCl)CN3C(=O)c1cc2cc(C#Cc3ccc4[nH]c(C(=O)N5C[C@@H](CCl)c6c5cc(O)c5[nH]c(C(F)(F)F)c(C(=O)OC)c65)cc4c3)ccc2[nH]1
- inhibition in vivo at 0.0313 mg/kg (Colon 26 [3]): 82%

Second part, the molecule before the results:

Compound: COC(=O)c1c(C(F)(F)F)[nH]c2c(O)cc3c(c12)[C@H](CCl)CN3C(=O)c1cc2cc(NC(=O)Nc3ccc4[nH]c(C(=O)N5C[C@@H](CCl)c6c5cc(O)c5[nH]c(C(F)(F)F)c(C(=O)OC)c65)cc4c3)ccc2[nH]1
- IC50 (HeLa; [5]): 0.091 ng/mL (≈ 0.0875 nM)
- inhibition in vivo at 0.0156 mg/kg (Colon 26 [2]): 94%

Compound: COC(=O)c1c(C(F)(F)F)[nH]c2c(O)cc3c(c12)[C@H](CCl)CN3C(=O)c1cc2cc(CCc3ccc4[nH]c(C(=O)N5C[C@@H](CCl)c6c5cc(O)c5[nH]c(C(F)(F)F)c(C(=O)OC)c65)cc4c3)ccc2[nH]1
- inhibition in vivo at 0.0313 mg/kg (Colon 26 [3]): 87%
- IC50 (HeLa; [5]): 0.21 ng/mL (≈ 0.208 nM)

Compound: COC(=O)c1c(C(F)(F)F)[nH]c2c(O)cc3c(c12)[C@H](CCl)CN3C(=O)c1cc2cc(Cc3ccc4[nH]c(C(=O)N5C[C@@H](CCl)c6c5cc(O)c5[nH]c(C(F)(F)F)c(C(=O)OC)c65)cc4c3)ccc2[nH]1
- inhibition in vivo at 4 mg/kg (Colon 26 [4]): 80%
- IC50 (HeLa; [5]): 33 ng/mL (≈ 33.1 nM)

Compound: COC(=O)c1c(C(F)(F)F)[nH]c2c(O)cc3c(c12)[C@H](CCl)CN3C(=O)c1cc2cc(Oc3ccc4[nH]c(C(=O)N5C[C@@H](CCl)c6c5cc(O)c5[nH]c(C(F)(F)F)c(C(=O)OC)c65)cc4c3)ccc2[nH]1
- inhibition in vivo at 4 mg/kg (Colon 26 [4]): 88%
- IC50 (HeLa; [5]): 22 ng/mL (≈ 22.1 nM)

Compound: Cc1c[nH]c2c(O)cc3c(c12)[C@H](CCl)CN3C(=O)c1cc2cc(NC(=O)Nc3ccc4[nH]c(C(=O)N5C[C@@H](CCl)c6c5cc(O)c5[nH]cc(C)c65)cc4c3)ccc2[nH]1 [BIZELESIN]
- IC50 (HeLa; [5]): 0.06 ng/mL (≈ 0.0736 nM)
- inhibition in vivo at 0.0156 mg/kg (Colon 26 [2]): 90%
